These results are taken from US20180147131A1, “COMPOSITION FOR ORAL CAVITY AND FOOD PRODUCT, OR BEVERAGE” (KABUSHIKI KAISHA SANGI, priority 2015, published 2018).

The nature of the assay: Remineralization test (artificial incipient caries, contact microradiogram, computer image analysis). Also on record: species or system bovine. The following applies: conclusion from the remineralization tests of Examples and Comparative Examples. The source says:
In order to confirm the remineralizing effect, a previously made artificial incipient caries test sample was used. For the making of the artificial incipient caries test sample, enamel on the labial surface of the crown portion of a bovine front tooth was used. The enamel surface was abraded with #1000, #2400, and #4000 abrasive paper. A window of about 5×3 mm was made with Nail Enamel (Manufactured by Shiseido Company, Limited) at a site to be tested, on the abraded enamel surface, and immersed in a 0.1 M lactate buffer solution (pH 4.8, 3.0 mmM CaCl2, 1.8 mmM KH2PO4, 1.0% CMC) at 37° C. for 4 days to make artificial incipient caries. […]
The effect of remineralizing the artificial incipient caries site was analyzed using a computer.
In image analysis by the computer, the amount of the remineralized mineral was calculated based on the formula of Angmer et al. (B. Angmer, D. Carlstrom and J. E. Glas: Studies on Ultrastructure of Dental Enemel IV: The Mineralization of normal Human Enamel, J. Ultrastructure. Res. 8, 12-23, 1963), and the amounts of the mineral lost AZ (% volume mineral·μm) at the control surface and treated surface of each section were calculated according to the method of Damato et al. (F. A. Damato, R. Stang and K. W. Stephen: Effect of Fluoride Concentration on Reminerelization of Carious Enamel: an in vitro pH-Cycling Study, Caries Res, 24, 174-180, 1990). […]

As to sodium chondroitin sulfate, the “tooth remineralizing effect (in words)” value is “little tooth remineralizing effect”.
